Assay results published in PubChem BioAssay (NCI).
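Test compounds were applied to cells in 96-well plates for 48 hours at 5 doses. Definition used: TGI = concentration required for complete inhibition of growth.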

What was measured:
Assay in all cases: DTP human tumour cell line panel, 48 h
786-0 renal = tested on: 786-0 renal
A498 renal = tested on: A498 renal
A549 NSCLC = tested on: A549 NSCLC
ACHN renal = tested on: ACHN renal
BT-549 breast = tested on: BT-549 breast
CAKI-1 renal = tested on: CAKI-1 renal
CCRF-CEM leukemia = tested on: CCRF-CEM leukemia
COLO 205 colon = tested on: COLO 205 colon
DU-145 prostate = tested on: DU-145 prostate
EKVX NSCLC = tested on: EKVX NSCLC
HCC-2998 colon = tested on: HCC-2998 colon
HCT-116 colon = tested on: HCT-116 colon
HCT-15 colon = tested on: HCT-15 colon
HL-60(TB) leukemia = tested on: HL-60(TB) leukemia
HOP-62 NSCLC = tested on: HOP-62 NSCLC
HOP-92 NSCLC = tested on: HOP-92 NSCLC
HS 578T breast = tested on: HS 578T breast
HT29 colon = tested on: HT29 colon
IGROV1 ovarian = tested on: IGROV1 ovarian
K-562 leukemia = tested on: K-562 leukemia
KM12 colon = tested on: KM12 colon
M14 melanoma = tested on: M14 melanoma
MALME-3M melanoma = tested on: MALME-3M melanoma
MCF7 breast = tested on: MCF7 breast
MDA-MB-231 breast = tested on: MDA-MB-231 breast
MDA-MB-435 = tested on: MDA-MB-435
MDA-N = tested on: MDA-N
NCI-H226 lung = tested on: NCI-H226 lung
NCI-H23 lung = tested on: NCI-H23 lung
NCI-H460 lung = tested on: NCI-H460 lung
NCI-H522 lung = tested on: NCI-H522 lung
NCI/ADR-RES ovarian = tested on: NCI/ADR-RES ovarian
OVCAR-3 ovarian = tested on: OVCAR-3 ovarian
OVCAR-4 ovarian = tested on: OVCAR-4 ovarian
OVCAR-5 ovarian = tested on: OVCAR-5 ovarian
OVCAR-8 ovarian = tested on: OVCAR-8 ovarian
PC-3 prostate = tested on: PC-3 prostate
RPMI-8226 leukemia = tested on: RPMI-8226 leukemia
RXF 393 renal = tested on: RXF 393 renal
SF-268 CNS = tested on: SF-268 CNS
SF-295 CNS = tested on: SF-295 CNS
SF-539 CNS = tested on: SF-539 CNS
SK-MEL-2 melanoma = tested on: SK-MEL-2 melanoma
SK-MEL-28 melanoma = tested on: SK-MEL-28 melanoma
SK-MEL-5 melanoma = tested on: SK-MEL-5 melanoma
SK-OV-3 ovarian = tested on: SK-OV-3 ovarian
SN12C renal = tested on: SN12C renal
SNB-19 CNS = tested on: SNB-19 CNS
SNB-75 CNS = tested on: SNB-75 CNS
SR leukemia = tested on: SR leukemia
SW-620 colon = tested on: SW-620 colon
T-47D breast = tested on: T-47D breast
TK-10 renal = tested on: TK-10 renal
U251 CNS = tested on: U251 CNS
UACC-257 melanoma = tested on: UACC-257 melanoma
UACC-62 melanoma = tested on: UACC-62 melanoma
UO-31 renal = tested on: UO-31 renal

O=C1c2ccccc2C(=O)c2c(NC(=O)C(Cl)CCl)cccc21 (configuration not stated) was tested, and the TGI (786-0 renal) was 11.9 µM, the TGI (A498 renal) was 36.2 µM and the TGI (A549 NSCLC) was 47.6 µM. For the same compound, the TGI (ACHN renal) was 29 µM, the TGI (BT-549 breast) was 31.2 µM and the TGI (CAKI-1 renal) was 38.8 µM. It also gave a TGI (CCRF-CEM leukemia) of 2.38 µM, a TGI (COLO 205 colon) of 26.9 µM and a TGI (DU-145 prostate) of 24.6 µM. It also gave a TGI (EKVX NSCLC) of 42.7 µM, a TGI (HCC-2998 colon) of 32.4 µM and a TGI (HCT-116 colon) of 28.4 µM. The TGI (HCT-15 colon) was 23.4 µM, the TGI (HL-60(TB) leukemia) was 2.68 µM and the TGI (HOP-62 NSCLC) was 23.6 µM. The TGI (HOP-92 NSCLC) was 9.82 µM, the TGI (HS 578T breast) was > 100 µM and the TGI (HT29 colon) was 10.5 µM. It also gave a TGI (IGROV1 ovarian) of 20 µM, a TGI (K-562 leukemia) of 0.395 µM and a TGI (KM12 colon) of 8.26 µM. It also gave a TGI (M14 melanoma) of 20.9 µM, a TGI (MALME-3M melanoma) of 47.2 µM and a TGI (MCF7 breast) of 2.47 µM. The TGI (MDA-MB-231 breast) was 18.4 µM, the TGI (MDA-MB-435) was 23 µM and the TGI (MDA-N) was 24.6 µM. For the same compound, the TGI (NCI-H226 lung) was 48.3 µM, the TGI (NCI-H23 lung) was 11.6 µM and the TGI (NCI-H460 lung) was 31.1 µM. For the same compound, the TGI (NCI-H522 lung) was 7.13 µM, the TGI (NCI/ADR-RES ovarian) was > 77.6 µM and the TGI (OVCAR-3 ovarian) was 23.1 µM. The TGI (OVCAR-4 ovarian) was 23.3 µM, the TGI (OVCAR-5 ovarian) was 34.1 µM and the TGI (OVCAR-8 ovarian) was > 39.1 µM. The TGI (PC-3 prostate) was 24.3 µM, the TGI (RPMI-8226 leukemia) was 2.11 µM and the TGI (RXF 393 renal) was 16.2 µM. The TGI (SF-268 CNS) was 25 µM, the TGI (SF-295 CNS) was > 62.1 µM and the TGI (SF-539 CNS) was 11.5 µM. For the same compound, the TGI (SK-MEL-2 melanoma) was 12.2 µM, the TGI (SK-MEL-28 melanoma) was 35.5 µM and the TGI (SK-MEL-5 melanoma) was 28.1 µM. It also gave a TGI (SK-OV-3 ovarian) of 39.1 µM, a TGI (SN12C renal) of 21.4 µM and a TGI (SNB-19 CNS) of 32.9 µM. The TGI (SNB-75 CNS) was 32.4 µM, the TGI (SR leukemia) was 0.347 µM and the TGI (SW-620 colon) was 14.7 µM. For the same compound, the TGI (T-47D breast) was > 27.5 µM, the TGI (TK-10 renal) was 18.1 µM and the TGI (U251 CNS) was > 38.4 µM. The TGI (UACC-257 melanoma) was 36.5 µM, the TGI (UACC-62 melanoma) was 33.9 µM and the TGI (UO-31 renal) was 24.1 µM.
